Patent publication US8877208B2 (priority 2008, dated 2014)
“Also recorded” adds a separate entry of the source.

System: virus

TRITON-X100 was tested, and the “biocidal activity against virus (ability to inactivate a virus)” value was “less biocidal activity; also recorded: less ability to inactivate a virus”.
